From PMC4639779, “Peptide Functionalized Gold Nanorods for the Sensitive Detection of a Cardiac Biomarker Using Plasmonic Paper Devices” (Scientific Reports, 2015)
Values joined by “and” are separate entries in the source; they are usually repeats but may differ in a detail not shown here. Equal values may be shown once. Each block holds one molecule with its values, some of them ahead of it.

Experiments:
cTnI = target: T1, cTnI (Homo sapiens, UniProt P19429); settings: identified from a phage display peptide library; cited from earlier work
T1 construct: purchased Life Diagnostics, USA
T1 sequence (P19429 whole entry): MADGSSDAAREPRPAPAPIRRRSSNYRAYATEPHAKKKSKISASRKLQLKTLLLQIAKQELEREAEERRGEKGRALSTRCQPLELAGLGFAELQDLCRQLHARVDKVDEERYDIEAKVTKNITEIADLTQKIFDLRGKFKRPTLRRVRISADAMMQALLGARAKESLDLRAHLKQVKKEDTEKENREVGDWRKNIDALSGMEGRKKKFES
Excerpt: Gold nanorods (AuNR) are an attractive choice as plasmonic nanotransducers for label-free sensing because of their geometrical tunability of LSPR wavelength and high sensitivity. We synthesized AuNRs using a seed-mediated approach with a length of 47.3 ± 2.3 nm and a diameter of 20.2 ± 1.4 nm (Fig. 2A). The human troponin I binding peptide (-FYSHSFHENWPS-), identified from a phage display peptide library, with nanomolar (nM) binding affinity to cTnI was employed here as the biorecognition element. The conjugation of the peptide to AuNRs as achieved by introducing a cysteine residue at ...

cTnI (troponin I) = experiment: LSPR detection of cTnI with bioplasmonic paper device in buffer; format: binding, human; settings: highest concentration tested, 3.53 μg/ml cTnI
Method: To probe the sensing capability of the BPDs, we exposed the BPDs to troponin I (3.53 μg/ml in 0.1 M TBS pH 8.0). […] The higher sensitivity of peptide-AuNR compared to antibody-AuNR is due to differences in the thickness of the peptide and antibody adsorbate layer as will be discussed in detail below. To probe the limit of detection in both cases, BPDs with bioconjugated AuNR were exposed to varying concentrations of cTnI. […] To compare the selectivity of the peptide and antibody towards cTnI, we used human serum albumin (HSA) as an interfering protein (Supplemental Figure S11). […] A regular laboratory filter paper (Whatman #1) was used for the absorption of nanorods. A 1 cm × 1 cm paper strip is taken and immersed in a solution of AuNR conjugates (peptide and antibody) and left overnight at 4 °C. The paper strip was taken out and washed with tris buffer and immersed in different concentrations of troponin in tris buffer (pH 8) for 2 hours at 4 °C. It was removed and washed thoroughly with tris buffer and dried under a stream of nitrogen. Extinction spectra from paper substrates were collected using a CRAIC microspectrophotometer (QDI 302) coupled to a Leica optical microscope (DM 4000 M) with 20× objective in the range of 450–800 nm with 10 accumulations and 100 ms exposure time in reflection mode. The spectral resolution of the microspectrophotometer is 0.2 nm. […]

[1] = AFM dry state thickness of recognition layer on AuNR; format: physicochemical
Method: We have also used dynamic light scattering (DLS) to monitor the changes in the hydrodynamic size of the AuNR upon bioconjugation with cTnI binding peptide or anti-cTnI. […] The dry state thickness of the peptide and antibody recognition layers was measured using atomic force microscopy (AFM; Supplemental Figure S6).
Now we turn our attention to the structure-based functional mechanism of the peptide-conjugated BPDs. The structure and thickness layer of the peptide recognition element on the gold surface was also investigated using molecular dynamic simulations (described in the supplemental section). […] The amino acid Trp[10] in the peptide (a possible binding residue to cTnI) is distal to the gold surface and accessible for cTnI binding. […] These key residues provide structural information and will be used in further studies for the optimization of peptide recognition elements for cTnI. Of importance to this study, the thickness of the biomolecule adlayer can be obtained from our molecular dynamic simulations. […] The smaller thickness of the peptide layer renders higher sensitivity of BPDs using peptide recognition elements. For calculating the thickness layer from our computational models, the gold surface is aligned in the XY plane and the thickness of the peptide or peptide-cTnI complex on the gold surface is calculated as the maximum difference of the Z-coordinates. […]

[2] = Distance-dependent refractive index sensitivity of AuNR (layer-by-layer); format: physicochemical
Excerpt: We probed the distance-dependent sensitivity of the AuNRs, nanotransducers used in this study, by depositing polyelectrolyte multilayers using layer-by-layer (LbL) assembly. Extinction spectra were collected after the deposition of each bilayer comprised of poly(allylamine hydrocholoride) (PAH) as a positively charged polymer and poly(styrene sulfonate) (PSS) as a negatively charged polymer. […] It is instructive to define a parameter called distance-dependent refractive index sensitivity (σ), which is the LSPR shift caused by the deposition of a 1 nm thick dielectric layer (polyelectrolyte multilayers in the present case) at a predetermined distance from the surface of the nanotransducer. The extinction measurements after troponin binding to the bioconjugated AuNR were performed in the dry state. So, considering that the thickness of peptide and antibody in their dry state is ~1 nm and ~4.2 nm for peptide and antibody, respectively, the values of σ are computed as shown in Fig. 5E. For peptide recognition elements, σ is found to be 6.67 nm/nm whereas in case of antibody, σ is found to be 4.33 nm/nm. From the distance-dependent refractive index sensitivity measurements, it can be seen that the local refractive index sensitivity with peptide recognition elements is nearly 50% higher than compared to that with antibody-based recognition elements. […] This discrepancy can possibly be due to the higher number of cTnI molecules bound on the AuNR surface in the case of the peptide recognition elements compared to antibodies. The low steric hindrance of the peptides facilitates a higher density of the recognition elements on the surface of the Au nanotransducers and thus a higher density of cTnI molecules. This observation will be further explored in future studies in order to maximize the sensitivity of our BPDs.
Glass substrates were modified by 1% P2VP followed by the adsorption of AuNR. […]

[3] = target: T2, Human Cardiac Troponin-I Recombinant (human, UniProt P19429 1-210); experiment: pull-down; peptide-conjugated AuNRs with cTnI; SDS-PAGE, blotted with polyclonal goat antibody; settings: both partners purified
T2 construct: human cardiac troponin I, recombinant, bought; also called cTnI; source: bought: Life Diagnostics, USA (recombinant)
T2 sequence (P19429 whole entry): as above

Molecule: -FYSHSFHENWPS-
binding affinity to cTnI (cTnI): nanomolar

thickness of recognition layer on AuNR [1]: 0.96 nm and ~ 0.9 nm | distance-dependent refractive index sensitivity (σ) ([2]; AuNRs on glass, PAH/PSS multilayers, at dry thickness of ~1 nm (peptide) or ~4.2 nm (antibody)): 6.67 nm/nm | corresponding LSPR shift from the distance-dependence curve ([2]; from σ curve of Fig. 5E): 24.5 nm | local refractive index sensitivity higher than with antibody-based recognition elements ([2]; peptide vs antibody): ~50%
Molecule: -FYSHSFHENWPSC- [cysteine-modified peptide]
LSPR shift higher than with antibodies as recognition elements (cTnI (troponin I)): ~100%

binding result [3]: binds
B1: cysteine-modified human troponin I binding peptide (-FYSHSFHENWPSC-) (peptide)
peptide: FYSHSFHENWPSC
notes: In all assays the peptide was attached to gold (Au surface of the QCM, or gold nanorods) by an Au-S linkage through its C-terminal cysteine; source: synthetic peptide, bought: Genscript USA Inc
